Experimental data taken from US20220041681A1 (MEDIMMUNE LIMITED, priority 2016, published 2022).

System: Healthy volunteer
Test: Phase 1 single-ascending dose study
Settings: for TEAE: Abdominal distension / TEAE: Abdominal pain / TEAE: Application site erosion / TEAE: Arrhythmia / TEAE: Atrioventricular block second degree / TEAE: Cardiac Disorders / TEAE: Decreased appetite / TEAE: Diarrhea / TEAE: Dizziness / TEAE: Gastrointestinal Disorders / TEAE: Headache / TEAE: Immune System Disorders / TEAE: Injury associated with device / TEAE: Injury poisoning and procedural complications / TEAE: Metabolism and nutrition disorders / TEAE: Musculoskeletal and connective tissue disorders / TEAE: Musculoskeletal chest pain / TEAE: Nasopharyngitis / TEAE: Nausea / TEAE: Nervous system disorders / TEAE: Oropharyngeal pain / TEAE: Procedural dizziness / TEAE: Respiratory, thoracic and mediastinal disorders / TEAE: Seasonal allergy / TEAE: Subjects with at least one event / TEAE: Ventricular extrasystoles / TEAE: Vomiting: N = 6, subjects n (%)

Structure (SMILES): CCCCCCCCCCCCCCCC(=O)N[C@@H](CCC(=O)NCCCC[C@H](NC(=O)[C@H](CC(=O)O)NC(=O)[C@H](CO)NC(=O)C(NC(=O)[C@H](Cc1ccccc1)NC(=O)C(NC(=O)CNC(=O)[C@H](CCC(N)=O)NC(=O)[C@H](CO)NC(=O)[C@@H](N)Cc1cnc[nH]1)[C@@H](C)O)[C@@H](C)O)C(=O)N[C@@H](CO)C(=O)N[C@@H](CCC(=O)O)C(=O)N[C@@H](Cc1ccc(O)cc1)C(=O)N[C@@H](CC(C)C)C(=O)N[C@@H](CC(=O)O)C(=O)N[C@@H](CO)C(=O)N[C@@H](CCC(=O)O)C(=O)N[C@@H](CCCNC(=N)N)C(=O)N[C@@H](C)C(=O)N[C@@H](CCCNC(=N)N)C(=O)N[C@@H](CC(=O)O)C(=O)N[C@@H](Cc1ccccc1)C(=O)N[C@H](C(=O)N[C@@H](C)C(=O)N[C@@H](Cc1c[nH]c2ccccc12)C(=O)N[C@@H](CC(C)C)C(=O)N[C@@H](CCC(=O)O)C(=O)N[C@@H](C)C(=O)NCC(=O)NCC(=O)O)C(C)C)C(=O)O (stereo partly shown) [Peptide G933]
- TEAE: Abdominal distension (5 μg): 0
- TEAE: Abdominal pain (5 μg): 0
- TEAE: Application site erosion (5 μg): 0
- TEAE: Arrhythmia (5 μg): 0
- TEAE: Atrioventricular block second degree (5 μg): 0
- TEAE: Cardiac Disorders (5 μg): 0
- TEAE: Decreased appetite (5 μg): 0
- TEAE: Diarrhea (5 μg): 0
- TEAE: Dizziness (5 μg): 0
- TEAE: Gastrointestinal Disorders (5 μg): 0
- TEAE: Headache (5 μg): 1 (16.7%)
- TEAE: Immune System Disorders (5 μg): 0
- TEAE: Injury associated with device (5 μg): 0
- TEAE: Injury poisoning and procedural complications (5 μg): 0
- TEAE: Metabolism and nutrition disorders (5 μg): 0
- TEAE: Musculoskeletal and connective tissue disorders (5 μg): 0
- TEAE: Musculoskeletal chest pain (5 μg): 0
- TEAE: Nasopharyngitis (5 μg): 1 (16.7%)
- TEAE: Nausea (5 μg): 0
- TEAE: Nervous system disorders (5 μg): 1 (16.7%)
- TEAE: Oropharyngeal pain (5 μg): 0
- TEAE: Procedural dizziness (5 μg): 0
- TEAE: Respiratory, thoracic and mediastinal disorders (5 μg): 0
- TEAE: Seasonal allergy (5 μg): 0
- TEAE: Subjects with at least one event (5 μg): 2 (33.3%)
- TEAE: Ventricular extrasystoles (5 μg): 0
- TEAE: Vomiting (5 μg): 0
- TEAE: Abdominal distension (10 μg): 0
- TEAE: Abdominal pain (10 μg): 1 (16.7%)
- TEAE: Application site erosion (10 μg): 0
- TEAE: Arrhythmia (10 μg): 0
- TEAE: Atrioventricular block second degree (10 μg): 1 (16.7%)
- TEAE: Cardiac Disorders (10 μg): 1 (16.7%)
- TEAE: Decreased appetite (10 μg): 0
- TEAE: Diarrhea (10 μg): 1 (16.7%)
- TEAE: Dizziness (10 μg): 1 (16.7%)
- TEAE: Gastrointestinal Disorders (10 μg): 1 (16.7%)
- TEAE: Headache (10 μg): 0
- TEAE: Immune System Disorders (10 μg): 0
- TEAE: Injury associated with device (10 μg): 0
- TEAE: Injury poisoning and procedural complications (10 μg): 0
- TEAE: Metabolism and nutrition disorders (10 μg): 0
- TEAE: Musculoskeletal and connective tissue disorders (10 μg): 0
- TEAE: Musculoskeletal chest pain (10 μg): 0
- TEAE: Nasopharyngitis (10 μg): 0
- TEAE: Nausea (10 μg): 0
- TEAE: Nervous system disorders (10 μg): 1 (16.7%)
- TEAE: Oropharyngeal pain (10 μg): 0
- TEAE: Procedural dizziness (10 μg): 0
- TEAE: Respiratory, thoracic and mediastinal disorders (10 μg): 0
- TEAE: Seasonal allergy (10 μg): 0
- TEAE: Subjects with at least one event (10 μg): 3 (50.0%)
- TEAE: Ventricular extrasystoles (10 μg): 0
- TEAE: Vomiting (10 μg): 0
- TEAE: Abdominal distension (30 μg): 0
- TEAE: Abdominal pain (30 μg): 0
- TEAE: Application site erosion (30 μg): 1 (16.7%)
- TEAE: Arrhythmia (30 μg): 0
- TEAE: Atrioventricular block second degree (30 μg): 0
- TEAE: Cardiac Disorders (30 μg): 0
- TEAE: Decreased appetite (30 μg): 0
- TEAE: Diarrhea (30 μg): 0
- TEAE: Dizziness (30 μg): 1 (16.7%)
- TEAE: Gastrointestinal Disorders (30 μg): 0
- TEAE: Headache (30 μg): 1 (16.7%)
- TEAE: Immune System Disorders (30 μg): 1 (16.7%)
- TEAE: Injury associated with device (30 μg): 0
- TEAE: Injury poisoning and procedural complications (30 μg): 1 (16.7%)
- TEAE: Metabolism and nutrition disorders (30 μg): 0
- TEAE: Musculoskeletal and connective tissue disorders (30 μg): 1 (16.7%)
- TEAE: Musculoskeletal chest pain (30 μg): 1 (16.7%)
- TEAE: Nasopharyngitis (30 μg): 0
- TEAE: Nausea (30 μg): 0
- TEAE: Nervous system disorders (30 μg): 1 (16.7%)
- TEAE: Oropharyngeal pain (30 μg): 0
- TEAE: Procedural dizziness (30 μg): 1 (16.7%)
- TEAE: Respiratory, thoracic and mediastinal disorders (30 μg): 0
- TEAE: Seasonal allergy (30 μg): 1 (16.7%)
- TEAE: Subjects with at least one event (30 μg): 4 (66.7%)
- TEAE: Ventricular extrasystoles (30 μg): 0
- TEAE: Vomiting (30 μg): 0
- vomiting episodes (100 μg dose, 1 subject): 1 episode
- TEAE: Abdominal distension (100 μg): 0
- TEAE: Abdominal pain (100 μg): 0
- TEAE: Application site erosion (100 μg): 0
- TEAE: Arrhythmia (100 μg): 1 (16.7%)
- TEAE: Atrioventricular block second degree (100 μg): 0
- TEAE: Cardiac Disorders (100 μg): 1 (16.7%)
- TEAE: Decreased appetite (100 μg): 0
- TEAE: Diarrhea (100 μg): 0
- TEAE: Dizziness (100 μg): 0
- TEAE: Gastrointestinal Disorders (100 μg): 1 (16.7%)
- TEAE: Headache (100 μg): 1 (16.7%)
- TEAE: Immune System Disorders (100 μg): 0
- TEAE: Injury associated with device (100 μg): 0
- TEAE: Injury poisoning and procedural complications (100 μg): 0
- TEAE: Metabolism and nutrition disorders (100 μg): 0
- TEAE: Musculoskeletal and connective tissue disorders (100 μg): 0
- TEAE: Musculoskeletal chest pain (100 μg): 0
- TEAE: Nasopharyngitis (100 μg): 0
- TEAE: Nausea (100 μg): 1 (16.7%)
- TEAE: Nervous system disorders (100 μg): 2 (33.3%)
- TEAE: Oropharyngeal pain (100 μg): 0
- TEAE: Procedural dizziness (100 μg): 0
- TEAE: Respiratory, thoracic and mediastinal disorders (100 μg): 0
- TEAE: Seasonal allergy (100 μg): 0
- TEAE: Ventricular extrasystoles (100 μg): 0
- TEAE: Vomiting (100 μg): 1 (16.7%)
- vomiting episodes (150 μg dose, 4 subjects): 9 episodes
- TEAE: Abdominal distension (150 μg): 2 (3.3%)
- TEAE: Abdominal pain (150 μg): 0
- TEAE: Application site erosion (150 μg): 0
- TEAE: Arrhythmia (150 μg): 0
- TEAE: Atrioventricular block second degree (150 μg): 0
- TEAE: Cardiac Disorders (150 μg): 0
- TEAE: Decreased appetite (150 μg): 2 (33.3%)
- TEAE: Diarrhea (150 μg): 0
- TEAE: Dizziness (150 μg): 2 (33.3%)
